Data: patent publication US20210400967A1, “COMPOSITIONS COMPRISING PYRIDINE CARBOXYLATE HERBICIDES WITH GLYPHOSATE OR GLUFOSINATE” (Corteva Agriscience LLC, priority 2018, published 2021)

Legend:
Assay type in all cases: in vivo
[1] = system: Brassica napus (winter rape); experiment: Greenhouse postemergence herbicidal effect, winter rape (BRSNW); conditions: Example 6; Glufosinate 112.5 g ai/ha alone; 20-22 d
Text: (§1) Greenhouse Trial Methodology—Evaluation of Postemergence Herbicidal Effect
(§2) Seeds of the desired test plant species were planted in a 90:10% v/v (volume/volume) mixture of PRO-MIX® BX (Premier Tech Horticulture, Quakertown, Pa., USA) and PROFILE® GREENS GRADE™ (Profile Products LLC, Buffalo Grove, Ill., USA) planting mixture, which typically has a pH of 5.2 to 6.2 and an organic matter content of at least 50 percent, in plastic pots with a surface area of 103.2 square centimeters (cm^2). In some aspects, to ensure good germination and healthy plants, a fungicide treatment and/or other chemical or physical treatment was applied. The plants were grown for 7-36 days (d) in a greenhouse with an approximate 14-hour (h) photo-period which was maintained at about 23° C. during the day and 22° C. during the night. Nutrients and water were added on a regular basis and supplemental lighting was provided with overhead metal halide 1000-Watt lamps as necessary. The plants were employed for testing when they reached the second or third true leaf stage.
(§3) Emulsifiable concentrates of each of each pyridine carboxylate herbicide (Compound A or Compound B) were prepared at 100 grams acid equivalent per liter (g ae/L). The emulsifiable concentrates also included a safener, cloquintocet-mexyl, at 120 grams active ingredient per liter (g ai/L). An aliquot of each emulsifiable concentrate was placed in a 25 mL glass vial and diluted with an aqueous mixture of 1.25% (v/v) ACTIROB® B esterified rapeseed oil (Bayer Crop Science, Research Triangle Park, N.C., USA) or MSO® Concentrate with LECI-TECH® methylated soybean oil (Loveland Products, Loveland, Colo., USA) to obtain concentrated stock solutions at the highest application rate for each herbicide, based upon a 12 milliliter (mL) application volume at a rate of 187 liters per hectare (L/ha). The concentrated stock solutions were further diluted with an aqueous mixture of 1.25% v/v ACTIROB® B or MSO® Concentrate with LECI-TECH® to obtain stock solutions at reduced application rates for each herbicide. Spray solutions of the herbicide combinations (Compound A or Compound B plus glyphosate or glufosinate) were prepared by adding weighed amounts or aliquots of the glyphosate or glufosinate to the stock solutions of Compound A or Compound B to form 12-mL spray solutions in two-way combinations.
(§4) The spray solutions were applied to the plant material with an overhead Mandel track sprayer equipped with 8002E nozzles calibrated to deliver 187 L/ha over an application area of 0.503 square meters (m^2) at a spray height of 18 inches (43 centimeters (cm)) above the average plant canopy. Control plants were sprayed in the same manner with the solvent blank. All pyridine carboxylate herbicide (component a) application rates are given as “g ae/ha” and all glyphosate or glufosinate (component b) application rates are given as “g ai/ha.”
(§5) The treated plants and control plants were placed in a greenhouse as described above and watered by sub-irrigation to prevent wash-off of the test compounds. After 20-22 d, the condition of the test plants as compared with that of the control plants was determined visually and scored on a scale of 0 to 100 percent where 0 corresponds to no injury and 100 corresponds to complete kill.

[2] = system: Polygonum convolvulus (wild buckwheat); experiment: Greenhouse postemergence herbicidal effect, wild buckwheat (POLCO); conditions: 20-22 d
Text: as §1, §2, §3, §4, §5

[3] = system: Sinapis arvensis (wild mustard); experiment: Greenhouse postemergence herbicidal effect, wild mustard (SINAR); conditions: Example 6; Glufosinate 112.5 g ai/ha alone; 20-22 d
Text: as §1, §2, §3, §4, §5

[4] = system: Salsola kali (Russian thistle); experiment: Greenhouse postemergence herbicidal effect, Russian thistle (SASKR); conditions: Example 6; Glufosinate 112.5 g ai/ha alone; 20-22 d
Text: as §1, §2, §3, §4, §5

Kochia scoparia (kochia) = experiment: Greenhouse postemergence herbicidal effect, kochia (KCHSC); conditions: 20-22 d
Text: as §1, §2, §3, §4, §5

[5] = system: Chenopodium album L. (common lambsquarters); experiment: Greenhouse postemergence herbicidal effect, common lambsquarters (CHEAL); conditions: Glufosinate 112.5 g ai/ha alone, 20-22 d
Text: as §1, §2, §3, §4, §5

[6] = system: Amaranthus retroflexus (pigweed); experiment: Greenhouse postemergence herbicidal effect, pigweed (AMARE); conditions: Example 6; Glufosinate 112.5 g ai/ha alone; 20-22 d
Text: as §1, §2, §3, §4, §5

[7] = system: Matricaria chamomilla (wild chamomile); experiment: Greenhouse postemergence herbicidal effect, wild chamomile (MATCH); conditions: Example 6; Glufosinate 112.5 g ai/ha alone; 20-22 d
Text: as §1, §2, §3, §4, §5

[8] = system: Cirsium arvense (Canadian thistle); experiment: Greenhouse postemergence herbicidal effect, Canadian thistle (CIRAR); conditions: 20-22 d
Text: as §1, §2, §3, §4, §5

[9] = system: Triticum aestivum (spring wheat); experiment: Greenhouse postemergence phytotoxicity on crop, spring wheat (TRZAS); conditions: Example 6; Glufosinate 112.5 g ai/ha alone; 20-22 d
Text: as §1, §2, §3, §4, §5

[10] = system: Hordeum vulgare (spring barley); experiment: Greenhouse postemergence phytotoxicity on crop, spring barley (HORVS); conditions: Example 6; Glufosinate 112.5 g ai/ha alone; 20-22 d
Text: as §1, §2, §3, §4, §5

[11] = system: Brassica napus (spring rape); experiment: Greenhouse postemergence herbicidal effect, spring rape (BRSNN); conditions: Example 4; Glufosinate 112.5 g ai/ha alone; 20-22 d
Text: as §1, §2, §3, §4, §5

[12] = system: Setaria faberi (giant foxtail); experiment: Greenhouse postemergence herbicidal effect, giant foxtail (SETFA); conditions: Example 4; Glufosinate 112.5 g ai/ha alone; 20-22 d
Text: as §1, §2, §3, §4, §5

[13] = system: Abutilon theophrasti (velvetleaf); experiment: Greenhouse postemergence herbicidal effect, velvetleaf (ABUTH); conditions: Example 4; Glufosinate 112.5 g ai/ha alone; 20-22 d
Text: as §1, §2
(§6) Emulsifiable concentrates of each of each pyridine carboxylate herbicide (Compound A or Compound B) were prepared at 100 grams acid equivalent per liter (g ae/L). The emulsifiable concentrates also included a safener, cloquintocet-mexyl, at 120 grams active ingredient per liter (g ai/L). […]
as §5

[14] = system: Viola tricolor (wild pansy); experiment: Greenhouse postemergence herbicidal effect, wild pansy (VIOTR); conditions: 20-22 d
Text: as §1, §2, §3, §4, §5

[15] = system: Stellaria media (chickweed); experiment: Greenhouse postemergence herbicidal effect, chickweed (STEME); conditions: Example 5; Glufosinate 70 g ai/ha alone; 20-22 d
Text: as §1, §2, §6, §5

[16] = system: Echinochloa crus-galli (barnyardgrass); experiment: Greenhouse postemergence herbicidal effect, barnyardgrass (ECHCG); conditions: Example 5; Glufosinate 70 g ai/ha alone; 20-22 d
Text: as §1, §2, §6, §5

[17] = system: Euphorbia heterophylla (poinsettia); experiment: Greenhouse postemergence herbicidal effect, poinsettia (EPHHL); conditions: Example 5; Glufosinate 70 g ai/ha alone; 20-22 d
Text: as §1, §2, §6, §5

[18] = system: Sorghum vulgare (grain sorghum); experiment: Greenhouse postemergence herbicidal effect, grain sorghum (SORVU); conditions: Example 5; Glufosinate 70 g ai/ha alone; 20-22 d
Text: as §1, §2, §6, §5

[19] = system: Cyperus esculentus (nutsedge); experiment: Greenhouse postemergence herbicidal effect, nutsedge (CYPES); conditions: Example 5; Glufosinate 70 g ai/ha alone; 20-22 d
Text: as §1, §2, §6, §5

[20] = system: Rumex obtusifolius (broad-leaf dock); experiment: Greenhouse postemergence herbicidal effect, broad-leaf dock (RUMOB); conditions: Example 5; Glufosinate 70 g ai/ha alone; 20-22 d
Text: as §1, §2, §6, §5

[21] = system: Ipomoea hederacea (ivyleaf morningglory); experiment: Greenhouse postemergence herbicidal effect, ivyleaf morningglory (IPOHE); conditions: Example 5; Glufosinate 70 g ai/ha alone; 20-22 d
Text: as §1, §2, §6, §5

[22] = system: Helianthus annuus (common sunflower); experiment: Greenhouse postemergence herbicidal effect, common sunflower (HELAN); conditions: Example 5; Glufosinate 70 g ai/ha alone; 20-22 d
Text: as §1, §2, §6, §5

[23] = Example 4, Glufosinate 112.5 g ai/ha alone
[24] = Example 5, Glufosinate 70 g ai/ha alone
[25] = Example 6, Glufosinate 112.5 g ai/ha alone

SMILES: CP(=O)(O)CCC(N)C(=O)O (stereo not shown) [Glufosinate, 2-amino-4-(hydroxy(methyl)phosphinyl)butanoic acid]
- % visual injury, Obs [1]: 20%
- % visual injury, Obs [2, 23]: 10%
- % visual injury, Obs [2, 24]: 70%
- % visual injury, Obs [2, 25]: 15%
- % visual injury, Obs [3]: 25%
- % visual injury, Obs [4]: 53%
- % visual injury, Obs (Kochia scoparia (kochia); [23]): 10%
- % visual injury, Obs (Kochia scoparia (kochia); [24]): 15%
- % visual injury, Obs (Kochia scoparia (kochia); [25]): 25%
- % visual injury, Obs ([5]; Example 4): 5%
- % visual injury, Obs ([5]; Example 6): 5%
- % visual injury, Obs [6]: 65%
- % visual injury, Obs [7]: 65%
- % visual injury, Obs [8, 23]: 8%
- % visual injury, Obs [8, 24]: 75%
- % visual injury, Obs [8, 25]: 73%
- % visual injury, Obs [9]: 35%
- % visual injury, Obs [10]: 35%
- % visual injury, Obs [11]: 33%
- % visual injury, Obs [12]: 33%
- % visual injury, Obs [13]: 20%
- % visual injury, Obs [14, 23]: 23%
- % visual injury, Obs [14, 24]: 20%
- % visual injury, Obs [15]: 68%
- % visual injury, Obs [16]: 30%
- % visual injury, Obs [17]: 80%
- % visual injury, Obs [18]: 58%
- % visual injury, Obs [19]: 13%
- % visual injury, Obs [20]: 73%
- % visual injury, Obs [21]: 82%
- % visual injury, Obs [22]: 98%
